ChEMBL document CHEMBL1131604, “3,6-Diamino-10-methylacridan: uncharged precursor of acriflavine and its unique antimicrobial activity” (1998)

What was measured:
Human alphaherpesvirus 1 [1] = assay: Reduction of titer of Herpes simplex type-1 virus after 2 hr of incubation at 0.01% concentration; assay type: functional
Human alphaherpesvirus 1 [2] = assay: Reduction of titer of Herpes simplex type-1 virus after 2 hr of incubation at 0.1% concentration; assay type: functional

## CN1c2cc(N)ccc2Cc2ccc(N)cc21
Human alphaherpesvirus 1 [1]
  TCID50: 1.6
Human alphaherpesvirus 1 [2]
  TCID50: 3.7
